The record followed here is patent US11865158B2, “Process and composition matter of nanoparticle formulation for systemic treatment of sepsis” (PURDUE RESEARCH FOUNDATION, priority 2019, dated 2024).

What all share (assay): Minimum inhibitory concentration, broth microdilution
Holding throughout (assay type): cell-based

The subject of assay [1] is Escherichia coli ATCC 2469. From the text: (§1) Bacterial cell lines and reagents. Escherichia coli ATCC 2452 (NDM-1, isolated in Pakistan) was New Delhi metallo-beta-lactamase (NDM-1) positive, blaNDM positive by PCR, and carbepenem-resistant (Imipenem and Ertapenem). Escherichia coli ATCC 2469 (1001728, isolated from human urine) was New Delhi metallo-beta-lactamase (NDM-1) positive, blaKPC negative and blaNDM positive by PCR, and Carbepenem-resistant (Imipenem and Ertapenem). Klebsiella pneumoniae (NR-41920, isolated in 2008 from human blood culture in Boston, Massachusetts, USA) was Carbapenem-resistant strain, blaKPC-3 positive by PCR, and resistant to amikacin, ampicillin/sulbactam, cefazolin, cefepime, ceftazidime, ceftriaxone, cefuroxime, ciprofloxacin, gentamicin, meropenem, piperacillin/tazobactam, tobramicin and trimethoprim/sulfamethoxazole. Pseudomonas aeruginosa (NR-50573, isolated in early 1970s from the blood of a burn patient at Mercy Hospital in Pittsburgh, Pennsylvania, USA) was resistant to rifampicin and susceptible to meropenem, ofloxacin, ceftazidime, amikacin, and tobramycin. 0.5 McFarland standard was purchased from ThermoFisher scientific (Waltham, MA, USA). Mueller-Hinton broth and tryptone soy agar plates were purchased from Becton, Dickinson and company (Franklin Lakes, New Jersey, USA).
(§2) Antimicrobial activities The minimum inhibitory concentrations (MICs) of the control antibiotics (gentamicin and imipenem), PMB, D-TZP and TZP against Escherichia coli, Klebsiella pneumoniae and Pseudomonas aeruginosa strains were determined by the broth microdilution method, according to guidelines outlined by the Clinical and Laboratory Standards Institute (CLSI)^18. The bacterial stains were grown aerobically overnight on tryptone soy agar plates at 37° C. Afterwards, a bacterial solution equivalent to 0.5 McFarland standard was prepared and diluted in cation-adjusted Mueller-Hinton broth (CAMHB) to achieve a bacterial concentration of ˜5×10^5 CFU/mL. The treatments were added in the first row of the 96-well plates and serially diluted with media containing bacteria. Plates were incubated aerobically at 37° C. for 16-18 hours.

Assay [2] deals with Klebsiella pneumoniae NR-41920.
Text: as §1, §2

Assay [3] relates to Escherichia coli ATCC 2452.
Text: as §1, §2

Assay [4] relates to Pseudomonas aeruginosa NR-50573.
Text: as §1, §2

In brackets after ≈: the same amount, converted by molar mass. A value given as a limit tells only on which side of the number the result lay.

For the compound `C[C@@H](O)[C@H]1C(=O)N2C(C(=O)O)=C(SCCN=CN)C[C@H]12` [Imipenem, imipenem], the MIC (in general, the lowest concentration that inhibits growth of the organism) in assay [1] (ATCC2469) was 16 µg/mL (≈ 53.4 µM); in assay [2] (NR41920), 8 µg/mL (≈ 26.7 µM); in assay [3] (ATCC2452) it was 16 µg/mL (≈ 53.4 µM); in assay [4] (NR50573), 1 µg/mL (≈ 3.34 µM).
For the compound gentamicin, the “Minimum inhibitory concentration (MIC)” value in assay [1] is above 64 µg/mL; in assay [2], 64 µg/mL; in assay [3] it was above 64 µg/mL; in assay [4] it was 1 µg/mL.
